Measured values from US20070134660A1, “Methods for identifying modulators of kinesin activity” (ROSETTA INPHARMATICS LLC, priority 2003, published 2007).

How the values were obtained:
MKLP-1 (SEQ ID NO:20) = molecular target: T1, MKLP-1 (SEQ ID NO:20) (Homo sapiens, UniProt Q02241); assay: MKLP-1 motor domain ATPase assay; assay type: biochemical; settings: read-out: uKHC, nKHC, CENP-E, MKLP-1, KIF1B, MCAK ATPase IC50
T1 construct: His6 (printed only as 'H')
T1 sequence (Q02241 with tags, fused parts or gaps): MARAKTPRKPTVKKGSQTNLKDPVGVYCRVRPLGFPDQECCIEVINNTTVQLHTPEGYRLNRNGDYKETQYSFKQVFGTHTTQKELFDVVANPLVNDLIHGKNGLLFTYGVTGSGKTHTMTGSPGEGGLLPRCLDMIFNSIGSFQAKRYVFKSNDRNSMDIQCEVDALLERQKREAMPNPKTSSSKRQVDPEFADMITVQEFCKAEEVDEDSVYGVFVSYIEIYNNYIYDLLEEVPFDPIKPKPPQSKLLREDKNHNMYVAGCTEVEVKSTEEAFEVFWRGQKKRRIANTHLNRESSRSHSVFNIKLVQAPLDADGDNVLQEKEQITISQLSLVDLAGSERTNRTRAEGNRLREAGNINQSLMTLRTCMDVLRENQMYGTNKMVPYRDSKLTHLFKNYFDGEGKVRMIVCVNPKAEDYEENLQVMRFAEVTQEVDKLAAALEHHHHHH

HeLa cells = assay: alamarBlue cell growth assay, candidate KIF14 modulators in HeLa cells; assay type: cell-based, human; settings: 72 hours; for IC50: Homo sapiens, HeLa, compounds 1 and 2: submaximal inhibition
Protocol: alamarBlue™ Assay for Cell Growth: The alamarBlue™ assay is a measure of cellular respiration and is used as a measure of live cell number. The internal environment of the proliferating cell is more reduced than that of non-proliferating cells. Specifically, the ratios of NADPH/NADP, FADH/FAD, FMNH/FMN, and NADH/NAF increase during proliferation. alamarBlue™ can be reduced by these metabolic intermediates and, therefore, can be used to monitor cell proliferation.
HeLa cells were plated at a density of 2000/cells per well in 10% DMEM in a 96-well plate (Costar, Cat. No. 3606) 20 hours prior to treatment with a KIF14 inhibitory compound in a series of dilutions (20 microliters of 11-fold concentrated solution of the compound added to 200 microliters of media). The cells were incubated at 37° C. for 72 hours prior to replacement of 100 microliters per well of the media with 10% (vol/vol) alamarBlue™ reagent. After incubation for 2 hours at 37° C., the plates were read on a spectrofluorimeter SpectroMax Gemini (excitation 544 nm, emission 590 nm). The background value (averaged from wells with no cells) was subtracted from each reading.

[1] = molecular target: T2, KIF14 V342-K720 MD protein (SEQ ID NO:4) (Homo sapiens, UniProt Q15058); assay: KIF14 motor domain microtubule-dependent ATPase assay (Quinaldine Red); assay type: biochemical; settings: n = 2
T2 construct: made in house; host or cells: E. coli BL21 (DE3)
T2 sequence (Q15058 with tags, fused parts or gaps): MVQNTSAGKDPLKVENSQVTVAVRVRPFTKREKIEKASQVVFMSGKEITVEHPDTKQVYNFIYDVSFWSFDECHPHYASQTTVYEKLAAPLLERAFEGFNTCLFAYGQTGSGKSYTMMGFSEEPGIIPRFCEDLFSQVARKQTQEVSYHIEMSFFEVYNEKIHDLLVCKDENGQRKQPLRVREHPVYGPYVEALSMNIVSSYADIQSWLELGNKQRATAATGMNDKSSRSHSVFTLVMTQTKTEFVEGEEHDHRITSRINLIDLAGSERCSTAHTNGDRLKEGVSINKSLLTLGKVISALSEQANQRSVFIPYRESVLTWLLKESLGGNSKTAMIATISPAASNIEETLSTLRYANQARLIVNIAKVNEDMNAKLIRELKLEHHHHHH
Protocol: KIF14 Motor Domain Assay: KIF14 MDs were assayed for microtubule (MT)-dependent ATP hydrolysis by measuring the rate of inorganic phosphate (Pi) release using the dye Quinaldine Red, which absorbs light of 540 nm when bound to Pi. Assays (50 microliters) contained 50 mM K-PIPES pH 6.9 (which contains 90 mM KCl), 1 mM EGTA pH 8.0, 1 mM DTT, 100 micrograms/mL BSA, 2 mM MgCl2, 1 mM Na-ATP pH 7.0, 0.25-5 micromolar MT (which contain equimolar amounts of Taxol®), and 20-200 nM KIF14 MD enzyme. Reactions were initiated by the addition of enzyme and allowed to proceed at room temperature until they were quenched at regular time intervals by the addition of 50 microliters of 1.8 M KCl, 50 mM EDTA. To this was added 150 microliters of the Quinaldine Red dye solution (0.07 mg/mL quinaldine red, 0.09% polyvinyl alcohol, 4.1 mM ammonium molybdate, and 380 mM H2SO4). After 10 min incubation at room temperature, absorbance at 540 nm was read on a Molecular Devices Microtiter plate reader. Rates were calculated using the linear (steady-state) phase of the reaction.
Suitability of K14 Motor Domains for high-throughput screening: The motor domain assay was as described above, using 50 mM MES pH 6.0, 20 mM added KCl, 0.5 micromolar MTs, a temperature of 37° C., and varying enzyme concentration from 0 to 10 nM. The signal to background ratio, calculated as the amount of Pi formed after a 90 minute incubation in the presence of enzyme relative to in the absence of enzyme, was determined using different concentrations of the V342-K720 motor domain (SEQ ID NO:4), and is shown in Table 9. A high enough signal over background was obtained at low enzyme concentrations to allow high-through-put screening (HTS). Moreover, the V342-K720 motor domain (SEQ ID NO:4) was stable in the reaction for at least 90 minutes.
Screen for KIF14 Modulators: The ATPase assay described in EXAMPLE 7, as optimized in EXAMPLE 8, was used to screen for compounds that modulated the activity of the KIF14 V342-K720 MD protein (SEQ ID NO:4).

IC50 (MKLP-1 (SEQ ID NO:20)) [nM] | IC50 [1] [nM] | Structure (SMILES) | IC50 (HeLa cells) [nM] | Growth Inhibition in HeLa Cells (HeLa cells; [Compound] 19.5 nm) [%] | Growth Inhibition in HeLa Cells (HeLa cells; [Compound] 39.1 nm) [%] | Growth Inhibition in HeLa Cells (HeLa cells; [Compound] 78.1 nm) [%] | Growth Inhibition in HeLa Cells (HeLa cells; [Compound] 156.2 nm) [%] | Growth Inhibition in HeLa Cells (HeLa cells; [Compound] 312.5 nm) [%] | Growth Inhibition in HeLa Cells (HeLa cells; [Compound] 625 nm) [%] | Growth Inhibition in HeLa Cells (HeLa cells; [Compound] 1250 nm) [%] | Growth Inhibition in HeLa Cells (HeLa cells; [Compound] 2500 nm) [%] | Growth Inhibition in HeLa Cells (HeLa cells; [Compound] 5000 nm) [%] | Growth Inhibition in HeLa Cells (HeLa cells; [Compound] 10000 nm) [%]
> 40000 | 895 | CC(C)c1ccc(/C=N/NC(N)=S)cc1 [compound 2, 4-isopropylbenzaldehyde thiosemicarbazone] |  |  |  |  |  |  |  |  |  |  | 
> 40000 | 54 | CC(C)c1ccc(/C=N/NC(N)=S)cc1[N+](=O)[O-] [compound 4, 4-isopropyl-3-nitrobenzaldehyde thiosemicarbazone] |  |  |  |  |  |  |  |  |  |  | 
> 40000 | 76 | NC(=S)N/N=C/c1ccc(C2CCCCC2)cc1 [compound 3, 4-cyclohexylbenzaldehyde thiosemicarbazone] | 2800 | 8.97 | 5.97 | 8.16 | 6.91 | 8.88 | 12.32 | 7.53 | 44.36 | 83.84 | 95.02

Structure (SMILES) | IC50 (MKLP-1 (SEQ ID NO:20)) [nM] | IC50 [1] [nM] | IC50 (HeLa cells) [nM] | Growth Inhibition in HeLa Cells (HeLa cells; [Compound] 19.5 nm) [%] | Growth Inhibition in HeLa Cells (HeLa cells; [Compound] 39.1 nm) [%] | Growth Inhibition in HeLa Cells (HeLa cells; [Compound] 78.1 nm) [%] | Growth Inhibition in HeLa Cells (HeLa cells; [Compound] 156.2 nm) [%] | Growth Inhibition in HeLa Cells (HeLa cells; [Compound] 312.5 nm) [%] | Growth Inhibition in HeLa Cells (HeLa cells; [Compound] 625 nm) [%] | Growth Inhibition in HeLa Cells (HeLa cells; [Compound] 1250 nm) [%] | Growth Inhibition in HeLa Cells (HeLa cells; [Compound] 2500 nm) [%] | Growth Inhibition in HeLa Cells (HeLa cells; [Compound] 5000 nm) [%] | Growth Inhibition in HeLa Cells (HeLa cells; [Compound] 10000 nm) [%]
NC(=S)N/N=C\c1ccc(-c2ccccc2)cc1 [compound 1, 1,1′-biphenyl-4-carbaldehyde thiosemicarbazone] | > 40000 | 182 | 1000 | −3.58 | −4.74 | −2.50 | 5.29 | 10.32 | 12.76 | 19.73 | 51.68 | 48.18 | 40.98
